Data as given in ChEMBL document CHEMBL3399966, “Isosteric replacements of the carboxylic acid of drug candidate VX-787: Effect of charge on antiviral potency and kinase activity of azaindole-based influenza PB2 inhibitors” (Bioorg Med Chem Lett, 2015).

Experiments:
[1] = target: Hepatocyte growth factor receptor (Homo sapiens, UniProt P08581); experiment: Inhibition of MET (unknown origin)
[2] = target: Vascular endothelial growth factor receptor 2 (Homo sapiens, UniProt P35968); experiment: Inhibition of KDR (unknown origin)
[3] = target: Phosphatidylinositol 4,5-bisphosphate 3-kinase catalytic subunit beta isoform (Homo sapiens, UniProt P42338); experiment: Inhibition of PI3Kbeta (unknown origin)
[4] = target: Cyclin-dependent kinase 2 (Homo sapiens, UniProt P24941); experiment: Inhibition of CDK2 (unknown origin)
[5] = target: Phosphatidylinositol 4,5-bisphosphate 3-kinase catalytic subunit gamma isoform (Homo sapiens, UniProt P48736); experiment: Inhibition of PI3Kgamma (unknown origin)
[6] = target: Tyrosine-protein kinase SYK (Homo sapiens, UniProt P43405); experiment: Inhibition of SYK (unknown origin)
[7] = target: T1, Interleukin-1 receptor-associated kinase 4 (Homo sapiens, UniProt Q9NWZ3); experiment: Inhibition of IRAK4 (unknown origin)
T1 sequence (Q9NWZ3 whole entry): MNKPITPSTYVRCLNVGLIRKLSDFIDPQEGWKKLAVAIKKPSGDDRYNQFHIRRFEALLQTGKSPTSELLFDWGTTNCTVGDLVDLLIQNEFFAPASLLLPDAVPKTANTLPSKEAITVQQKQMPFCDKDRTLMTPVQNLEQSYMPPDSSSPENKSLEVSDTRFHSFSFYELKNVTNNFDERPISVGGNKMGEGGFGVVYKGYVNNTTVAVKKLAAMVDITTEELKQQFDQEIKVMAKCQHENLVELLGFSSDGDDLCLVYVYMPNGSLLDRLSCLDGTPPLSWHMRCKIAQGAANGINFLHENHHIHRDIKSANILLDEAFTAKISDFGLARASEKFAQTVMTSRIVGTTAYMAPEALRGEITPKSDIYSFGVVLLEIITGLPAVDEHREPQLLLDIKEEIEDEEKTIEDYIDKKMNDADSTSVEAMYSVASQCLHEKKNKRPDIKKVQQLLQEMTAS

[8] = target: Mitogen-activated protein kinase 10 (Homo sapiens, UniProt P53779); experiment: Inhibition of JNK3 (unknown origin)
[9] = target: T2, Receptor-type tyrosine-protein kinase FLT3 (Homo sapiens, UniProt P36888); experiment: Inhibition of FLT3 (unknown origin)
T2 sequence (P36888 whole entry): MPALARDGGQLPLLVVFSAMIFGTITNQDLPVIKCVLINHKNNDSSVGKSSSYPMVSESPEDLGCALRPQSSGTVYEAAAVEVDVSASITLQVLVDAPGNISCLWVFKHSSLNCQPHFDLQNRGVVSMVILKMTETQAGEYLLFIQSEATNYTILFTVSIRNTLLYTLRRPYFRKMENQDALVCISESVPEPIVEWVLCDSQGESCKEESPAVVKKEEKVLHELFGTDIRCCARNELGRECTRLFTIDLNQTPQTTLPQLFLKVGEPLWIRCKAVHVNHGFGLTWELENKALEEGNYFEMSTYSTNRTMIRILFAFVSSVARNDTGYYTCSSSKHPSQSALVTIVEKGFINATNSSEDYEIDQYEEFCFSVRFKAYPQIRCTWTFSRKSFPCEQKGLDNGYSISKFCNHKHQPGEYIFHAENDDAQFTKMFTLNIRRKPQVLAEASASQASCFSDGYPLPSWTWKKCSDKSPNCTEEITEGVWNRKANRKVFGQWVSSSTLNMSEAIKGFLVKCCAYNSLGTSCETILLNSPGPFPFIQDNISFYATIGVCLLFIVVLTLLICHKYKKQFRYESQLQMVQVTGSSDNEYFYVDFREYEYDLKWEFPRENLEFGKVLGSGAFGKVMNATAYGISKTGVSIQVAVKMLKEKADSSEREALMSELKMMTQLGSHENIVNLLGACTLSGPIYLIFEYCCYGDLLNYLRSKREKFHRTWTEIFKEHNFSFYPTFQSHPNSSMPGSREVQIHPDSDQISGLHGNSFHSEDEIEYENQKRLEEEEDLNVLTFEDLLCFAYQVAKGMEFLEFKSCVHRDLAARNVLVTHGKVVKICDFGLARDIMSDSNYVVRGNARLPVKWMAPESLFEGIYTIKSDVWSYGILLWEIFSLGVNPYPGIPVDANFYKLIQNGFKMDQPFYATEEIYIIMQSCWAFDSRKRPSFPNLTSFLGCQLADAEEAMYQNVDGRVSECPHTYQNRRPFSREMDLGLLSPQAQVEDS

[10] = target: Serine/threonine-protein kinase PLK1 (Homo sapiens, UniProt P53350); experiment: Inhibition of PLK (unknown origin)
[11] = target: T3, Phosphatidylinositol 4,5-bisphosphate 3-kinase catalytic subunit delta isoform (Homo sapiens, UniProt O00329); experiment: Inhibition of PI3Kdelta (unknown origin)
T3 sequence (O00329 whole entry): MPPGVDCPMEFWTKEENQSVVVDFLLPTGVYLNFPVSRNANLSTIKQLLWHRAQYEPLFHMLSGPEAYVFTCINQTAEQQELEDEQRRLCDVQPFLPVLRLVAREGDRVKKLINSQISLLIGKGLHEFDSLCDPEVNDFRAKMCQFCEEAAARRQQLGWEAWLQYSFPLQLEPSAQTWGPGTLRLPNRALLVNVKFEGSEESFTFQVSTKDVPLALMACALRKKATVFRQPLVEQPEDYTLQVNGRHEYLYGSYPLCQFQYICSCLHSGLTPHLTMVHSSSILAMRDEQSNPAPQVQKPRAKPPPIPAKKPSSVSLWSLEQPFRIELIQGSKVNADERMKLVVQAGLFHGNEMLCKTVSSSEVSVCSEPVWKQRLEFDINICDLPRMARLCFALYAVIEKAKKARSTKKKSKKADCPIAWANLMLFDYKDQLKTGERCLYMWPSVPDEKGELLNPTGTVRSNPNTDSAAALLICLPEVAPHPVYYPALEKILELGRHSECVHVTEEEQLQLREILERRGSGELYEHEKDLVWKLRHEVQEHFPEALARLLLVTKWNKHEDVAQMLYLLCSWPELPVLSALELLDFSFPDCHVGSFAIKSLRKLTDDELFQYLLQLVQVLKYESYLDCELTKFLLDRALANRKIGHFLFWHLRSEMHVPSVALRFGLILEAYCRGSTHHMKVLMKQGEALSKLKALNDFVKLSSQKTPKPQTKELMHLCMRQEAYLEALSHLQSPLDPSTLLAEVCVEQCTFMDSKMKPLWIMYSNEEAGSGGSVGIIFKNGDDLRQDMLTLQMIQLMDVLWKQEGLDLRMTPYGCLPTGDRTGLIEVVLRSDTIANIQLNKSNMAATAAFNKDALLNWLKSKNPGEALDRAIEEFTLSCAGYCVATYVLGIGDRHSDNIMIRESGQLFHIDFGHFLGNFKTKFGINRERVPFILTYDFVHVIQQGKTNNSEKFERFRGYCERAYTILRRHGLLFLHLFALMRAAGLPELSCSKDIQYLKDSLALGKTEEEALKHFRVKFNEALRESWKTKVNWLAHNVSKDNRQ

[12] = target: Proto-oncogene tyrosine-protein kinase Src (Homo sapiens, UniProt P12931); experiment: Inhibition of SRC (unknown origin)
[13] = target: Glycogen synthase kinase-3 (Homo sapiens, UniProt P49840+P49841); experiment: Inhibition of GSK3 (unknown origin); type: protein assay
[14] = Dissociation constant, pKa of the compound by UC titration method; type: physicochemical
[15] = target: Rho-associated protein kinase (Homo sapiens, UniProt O75116+Q13464); experiment: Inhibition of ROCK (unknown origin); type: protein-complex assay
[16] = target: Phosphatidylinositol 4,5-bisphosphate 3-kinase catalytic subunit alpha isoform (Homo sapiens, UniProt P42336); experiment: Inhibition of PI3Kalpha (unknown origin)
[17] = target: cAMP-dependent protein kinase catalytic subunit alpha (Homo sapiens, UniProt P17612); experiment: Inhibition of PKAa (unknown origin)
Influenza A virus [18] = experiment: Antiviral activity against influenza A virus A/PR/8/34 strain incubated with MDCK cells assessed as reduction of viral RNA level equal to 1% of control level after 72 hrs by branched DNA assay; type: functional, organism-based; settings: A/Puerto Rico/8/1934(H1N1)
[19] = target: Tyrosine-protein kinase JAK2 (Homo sapiens, UniProt O60674); experiment: Inhibition of JAK2 (unknown origin)
Influenza A virus [20] = experiment: Antiviral activity against Influenza A virus A/PR/8/34 strain incubated with MDCK cells assessed as cell protection after 72 hrs by phenotypic cell protection assay; type: functional, organism-based; settings: A/Puerto Rico/8/1934(H1N1)

Sequence of Hepatocyte growth factor receptor (P08581 whole entry): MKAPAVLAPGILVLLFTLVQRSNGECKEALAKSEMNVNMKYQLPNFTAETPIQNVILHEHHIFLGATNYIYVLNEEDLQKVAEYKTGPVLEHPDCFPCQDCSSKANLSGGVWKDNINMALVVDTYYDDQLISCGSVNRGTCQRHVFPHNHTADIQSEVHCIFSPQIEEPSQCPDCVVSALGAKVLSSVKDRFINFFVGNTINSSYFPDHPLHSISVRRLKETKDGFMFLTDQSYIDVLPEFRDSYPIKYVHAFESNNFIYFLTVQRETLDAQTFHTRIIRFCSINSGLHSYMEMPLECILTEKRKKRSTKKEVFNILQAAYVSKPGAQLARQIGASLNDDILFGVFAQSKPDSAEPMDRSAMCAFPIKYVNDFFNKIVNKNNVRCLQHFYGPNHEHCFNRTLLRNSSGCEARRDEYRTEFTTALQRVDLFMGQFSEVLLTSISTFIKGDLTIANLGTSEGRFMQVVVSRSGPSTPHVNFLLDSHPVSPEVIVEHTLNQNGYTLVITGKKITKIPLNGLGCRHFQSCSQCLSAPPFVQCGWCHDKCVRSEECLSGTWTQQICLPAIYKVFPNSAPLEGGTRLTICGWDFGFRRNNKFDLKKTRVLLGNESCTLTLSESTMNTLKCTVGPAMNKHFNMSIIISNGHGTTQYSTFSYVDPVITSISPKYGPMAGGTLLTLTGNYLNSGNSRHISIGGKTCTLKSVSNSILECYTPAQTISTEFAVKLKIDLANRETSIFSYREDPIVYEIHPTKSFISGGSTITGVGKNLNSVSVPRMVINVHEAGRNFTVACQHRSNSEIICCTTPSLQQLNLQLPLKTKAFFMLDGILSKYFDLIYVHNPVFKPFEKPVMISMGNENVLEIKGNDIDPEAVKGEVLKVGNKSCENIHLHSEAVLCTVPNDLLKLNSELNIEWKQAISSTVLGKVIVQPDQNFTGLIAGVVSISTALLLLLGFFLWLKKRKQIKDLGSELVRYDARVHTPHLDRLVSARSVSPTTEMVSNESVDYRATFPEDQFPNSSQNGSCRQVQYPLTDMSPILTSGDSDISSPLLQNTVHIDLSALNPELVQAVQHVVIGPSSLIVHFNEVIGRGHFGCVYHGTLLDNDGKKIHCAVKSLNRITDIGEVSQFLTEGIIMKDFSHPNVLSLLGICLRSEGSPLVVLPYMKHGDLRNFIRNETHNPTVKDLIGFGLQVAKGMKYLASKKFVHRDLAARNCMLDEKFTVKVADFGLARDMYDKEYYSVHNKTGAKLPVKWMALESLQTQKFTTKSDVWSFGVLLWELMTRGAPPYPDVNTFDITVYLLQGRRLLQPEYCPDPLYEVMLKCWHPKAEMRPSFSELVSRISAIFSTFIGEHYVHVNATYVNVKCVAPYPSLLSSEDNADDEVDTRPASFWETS
Sequence of Phosphatidylinositol 4,5-bisphosphate 3-kinase catalytic subunit gamma isoform (P48736 whole entry, canonical isoform): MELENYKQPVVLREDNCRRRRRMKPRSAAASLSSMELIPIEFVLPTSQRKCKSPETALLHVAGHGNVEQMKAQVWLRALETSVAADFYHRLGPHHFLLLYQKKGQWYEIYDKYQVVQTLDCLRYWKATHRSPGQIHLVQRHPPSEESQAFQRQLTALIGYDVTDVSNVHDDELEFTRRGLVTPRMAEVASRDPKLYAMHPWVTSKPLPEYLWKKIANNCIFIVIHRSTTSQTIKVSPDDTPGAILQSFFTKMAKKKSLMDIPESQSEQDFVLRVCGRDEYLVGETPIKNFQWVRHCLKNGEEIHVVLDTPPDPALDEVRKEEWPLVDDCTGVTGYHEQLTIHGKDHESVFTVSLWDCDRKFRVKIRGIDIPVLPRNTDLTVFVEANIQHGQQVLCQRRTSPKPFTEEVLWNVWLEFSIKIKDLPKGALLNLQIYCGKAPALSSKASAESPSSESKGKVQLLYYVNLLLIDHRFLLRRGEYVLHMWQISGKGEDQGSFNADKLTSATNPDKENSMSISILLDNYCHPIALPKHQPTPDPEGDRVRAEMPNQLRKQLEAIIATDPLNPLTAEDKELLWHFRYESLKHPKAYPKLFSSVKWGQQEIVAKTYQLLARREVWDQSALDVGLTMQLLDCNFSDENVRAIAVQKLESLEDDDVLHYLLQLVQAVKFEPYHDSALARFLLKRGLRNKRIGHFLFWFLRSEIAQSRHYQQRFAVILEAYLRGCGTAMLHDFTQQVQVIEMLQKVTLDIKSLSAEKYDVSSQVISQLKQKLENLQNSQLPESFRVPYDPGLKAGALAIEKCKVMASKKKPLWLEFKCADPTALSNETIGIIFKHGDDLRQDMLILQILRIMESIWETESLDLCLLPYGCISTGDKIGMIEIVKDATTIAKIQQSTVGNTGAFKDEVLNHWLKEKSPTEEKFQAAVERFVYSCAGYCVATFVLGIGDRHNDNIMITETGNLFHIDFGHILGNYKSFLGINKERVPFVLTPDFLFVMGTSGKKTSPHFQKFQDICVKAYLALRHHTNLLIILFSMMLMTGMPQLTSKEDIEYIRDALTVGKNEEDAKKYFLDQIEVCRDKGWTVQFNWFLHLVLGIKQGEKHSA
Sequence of Mitogen-activated protein kinase 10 (P53779 whole entry): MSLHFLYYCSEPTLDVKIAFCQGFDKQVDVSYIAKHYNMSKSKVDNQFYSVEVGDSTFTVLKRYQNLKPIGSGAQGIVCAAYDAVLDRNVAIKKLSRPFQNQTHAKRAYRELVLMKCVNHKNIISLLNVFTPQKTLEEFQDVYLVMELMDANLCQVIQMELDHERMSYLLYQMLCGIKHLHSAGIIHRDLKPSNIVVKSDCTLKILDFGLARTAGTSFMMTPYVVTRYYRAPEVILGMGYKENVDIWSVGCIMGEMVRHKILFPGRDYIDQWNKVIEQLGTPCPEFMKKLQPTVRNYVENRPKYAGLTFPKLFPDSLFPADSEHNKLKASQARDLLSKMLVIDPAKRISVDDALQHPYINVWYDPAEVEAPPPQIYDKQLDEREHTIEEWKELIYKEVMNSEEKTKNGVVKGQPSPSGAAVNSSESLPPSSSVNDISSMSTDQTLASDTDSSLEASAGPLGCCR
Sequence of Phosphatidylinositol 4,5-bisphosphate 3-kinase catalytic subunit alpha isoform (P42336 whole entry, canonical isoform): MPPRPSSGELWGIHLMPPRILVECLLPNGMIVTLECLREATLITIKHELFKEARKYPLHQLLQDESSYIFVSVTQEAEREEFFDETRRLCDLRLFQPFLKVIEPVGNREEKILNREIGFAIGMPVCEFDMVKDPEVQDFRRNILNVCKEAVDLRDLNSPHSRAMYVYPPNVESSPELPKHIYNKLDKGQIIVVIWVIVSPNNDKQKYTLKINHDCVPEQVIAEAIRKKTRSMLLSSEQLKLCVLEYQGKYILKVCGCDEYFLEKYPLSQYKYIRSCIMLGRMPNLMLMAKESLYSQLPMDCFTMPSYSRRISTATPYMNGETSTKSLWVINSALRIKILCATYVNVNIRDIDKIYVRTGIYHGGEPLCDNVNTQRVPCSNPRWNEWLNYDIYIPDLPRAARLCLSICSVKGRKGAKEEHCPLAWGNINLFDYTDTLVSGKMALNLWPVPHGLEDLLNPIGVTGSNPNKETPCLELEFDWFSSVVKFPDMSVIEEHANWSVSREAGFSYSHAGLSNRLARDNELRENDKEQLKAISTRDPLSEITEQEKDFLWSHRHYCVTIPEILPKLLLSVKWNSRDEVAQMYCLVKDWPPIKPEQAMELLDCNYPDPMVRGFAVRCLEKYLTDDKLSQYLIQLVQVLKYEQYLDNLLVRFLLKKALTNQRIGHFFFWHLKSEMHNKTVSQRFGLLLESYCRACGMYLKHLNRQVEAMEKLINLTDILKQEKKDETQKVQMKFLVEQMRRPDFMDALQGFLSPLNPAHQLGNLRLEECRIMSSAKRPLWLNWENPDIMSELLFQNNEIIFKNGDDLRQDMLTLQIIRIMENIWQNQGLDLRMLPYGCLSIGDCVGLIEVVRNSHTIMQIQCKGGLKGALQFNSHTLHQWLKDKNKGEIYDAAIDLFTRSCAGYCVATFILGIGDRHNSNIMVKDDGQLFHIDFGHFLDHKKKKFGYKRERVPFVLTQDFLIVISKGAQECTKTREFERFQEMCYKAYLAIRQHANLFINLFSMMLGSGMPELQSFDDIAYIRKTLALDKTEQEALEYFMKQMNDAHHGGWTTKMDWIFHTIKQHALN
Sequence of Proto-oncogene tyrosine-protein kinase Src (P12931 2-536 limits assumed): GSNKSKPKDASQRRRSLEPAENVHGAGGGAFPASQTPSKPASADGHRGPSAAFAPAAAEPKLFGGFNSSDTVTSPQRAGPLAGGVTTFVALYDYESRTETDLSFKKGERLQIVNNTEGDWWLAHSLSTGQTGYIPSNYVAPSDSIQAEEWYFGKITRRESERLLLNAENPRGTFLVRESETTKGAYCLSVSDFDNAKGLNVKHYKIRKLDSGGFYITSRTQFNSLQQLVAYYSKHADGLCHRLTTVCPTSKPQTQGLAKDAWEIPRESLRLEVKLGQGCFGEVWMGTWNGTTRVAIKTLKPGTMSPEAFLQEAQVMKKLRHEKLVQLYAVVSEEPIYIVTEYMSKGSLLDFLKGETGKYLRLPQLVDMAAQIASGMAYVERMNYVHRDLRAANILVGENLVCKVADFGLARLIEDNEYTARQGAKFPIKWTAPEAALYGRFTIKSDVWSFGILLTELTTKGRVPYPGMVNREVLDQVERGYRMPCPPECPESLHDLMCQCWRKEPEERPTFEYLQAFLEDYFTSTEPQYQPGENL

Q: For O=c1[nH]c(=O)n(C[C@H]2C3CCC(CC3)[C@@H]2Nc2nc(-c3c[nH]c4ncc(F)cc34)ncc2F)o1 (mixture of isomers), which Ki [1] is on record?
A: Its Ki is greater than 4000 nM.

Q: What about the Ki [2] of the same compound?
A: Its Ki is greater than 4000 nM.

Q: And the Ki [3]?
A: Its Ki is 2000 nM.

Q: And the Ki [4]?
A: Its Ki is greater than 4000 nM.

Q: And the Ki [5]?
A: The Ki was 630 nM.

Q: And the Ki [6]?
A: The Ki was greater than 4000 nM.

Q: What about the Ki [7] of the same compound?
A: Its Ki is greater than 4000 nM.

Q: And the Ki [8]?
A: The Ki was greater than 4000 nM.

Q: And the Ki [9]?
A: Its Ki is 210 nM.

Q: And the Ki [10]?
A: Its Ki is 1100 nM.

Q: And the Ki [11]?
A: The Ki was 180 nM.

Q: What about the Ki [12] of the same compound?
A: Its Ki is greater than 4000 nM.

Q: What about the Ki [13] of the same compound?
A: The Ki was 23 nM.

Q: And the pKa [14]?
A: Its pKa is 5.2.

Q: What about the Ki [15] of the same compound?
A: The Ki was greater than 4000 nM.

Q: What about the Ki [16] of the same compound?
A: Its Ki is 1500 nM.

Q: What about the Ki [17] of the same compound?
A: The Ki was greater than 4000 nM.

Q: What about the EC50 (Influenza A virus [18]) of the same compound?
A: Its EC50 is 36 nM.

Q: What about the EC99 (Influenza A virus [18]) of the same compound?
A: The EC99 was 0.21 µM.

Q: And the Ki [19]?
A: Its Ki is 270 nM.

Q: What about the IC50 (Influenza A virus [20]) of the same compound?
A: The IC50 was 48 nM.
